In publication PMC7403393 (Scientific Reports, 2020):
Where a name gives a salt, the structure may show the parent alone. Read-outs that look alike come from different tables or passages of the source.

What was measured:
SARS-CoV-2 [1] = test: EC50/EC90 determination by quantification of viral genome (real-time RT-PCR) in VeroE6 cells; assay type: cell-based, SARS-CoV-2 strain BavPat1; details: for activity at 40 µM: VeroE6, 40 µM
in vitro = details: African green monkey
SARS-CoV-2 [2] = test: microbe, parasite or virus in culture; details: Severe acute respiratory syndrome coronavirus 2, Vero C1008, read-out: cell viability
VeroE6 cells [3] = tested on: VeroE6 cells; set-up: method as in PMID 29642580; details: cited from earlier work
SARS-CoV-2 [4] = details: 5 and 10 µM
SARS-CoV-2 [5] = tested on: SARS-CoV-2; set-up: method as in earlier work; details: cited from earlier work
SARS-CoV-2 [6] = tested on: SARS-CoV-2
VeroE6 cells [7] = details: VeroE6, no virus, CellTiter Blue
SARS-CoV-2 [8] = test: microbe, parasite or virus in culture; details: Severe acute respiratory syndrome coronavirus 2, Caco-2, read-out: replication inhibition
[9] = Severe acute respiratory syndrome coronavirus 2, Vero C1008, 48 h
[10] = Severe acute respiratory syndrome coronavirus 2, Vero C1008, 48 h, VeroE6, viral RNA by RT-qPCR, 2 days
[11] = selectivity index CC50/EC50, VeroE6
[12] = Severe acute respiratory syndrome coronavirus 2, Vero C1008, 48 h, VeroE6, viral RNA by RT-qPCR, 2 days, read-out: EC50
[13] = Severe acute respiratory syndrome coronavirus 2, Vero C1008, 48 h, VeroE6, viral RNA by RT-qPCR, 2 days, read-out: EC90
[14] = 10 µM compound, VeroE6, MOI 0.002, 3 days after infection, normalized cell viability relative to 10 µM arbidol
[15] = VeroE6, viral RNA by RT-qPCR, 2 days, read-out: EC50
[16] = VeroE6, viral RNA by RT-qPCR, 2 days, read-out: EC90

## CCCCC[C@H](O)/C=C/[C@H]1[C@H](O)CC(=O)[C@@H]1CCCCCCC(=O)O [Alprostadil]
SARS-CoV-2 [1]; [9]
  EC90: > 40 µM
SARS-CoV-2 [1]; [10]
  EC50: 5.39 µM
SARS-CoV-2 [1]; [11]
  SI: > 7.4
In vitro; VeroE6 cells (no virus)
  CC50 at 2 days: > 40 µM

## COC(c1ccccc1)(c1ccccc1)[C@H](Oc1nc(C)cc(C)n1)C(=O)O [Ambrisentan]
SARS-CoV-2 [1]; [12]
  EC50: ≥ 40 µM
SARS-CoV-2 [1]
  activity at 40 µM: lack of activity

## CCOC(=O)c1c(CSc2ccccc2)n(C)c2cc(Br)c(O)c(CN(C)C)c12 [Arbidol]
SARS-CoV-2 [1]; [12]
  EC50: 10.7 µM
SARS-CoV-2 [1]; [13]
  EC90: 15.2 µM
SARS-CoV-2 [1]; [11]
  SI: > 3.7
SARS-CoV-2 [2]
  viability at 10 µM: 70 to 90%
VeroE6 cells [3]
  CC50: > 40 µM
SARS-CoV-2 [4]
  antiviral effect in Caco-2 cells (in words): weaker than the one observed in VeroE6

## CC[C@H]1OC(=O)[C@H](C)[C@@H](O[C@H]2C[C@@](C)(OC)[C@@H](O)[C@H](C)O2)[C@H](C)[C@@H](O[C@@H]2O[C@H](C)C[C@H](N(C)C)[C@H]2O)[C@](C)(O)C[C@@H](C)CN(C)[C@H](C)[C@@H](O)[C@]1(C)O [Azithromycine]
SARS-CoV-2 [1]; [12]
  EC50: 2.12 µM
SARS-CoV-2 [1]; [13]
  EC90: 8.65 µM
SARS-CoV-2 [1]; [11]
  SI: > 19
In vitro; VeroE6 cells (no virus)
  CC50 at 2 days: > 40 µM
SARS-CoV-2 [5]
  antiviral effect in a macaque model: no antiviral effect

## CCCCOc1cc(C(=O)OCCN(CC)CC)ccc1N [Benoxinate hydrochloride]
SARS-CoV-2 [6]; [14]
  Inhibition index: 1.19

## CCOc1nc2cccc(C(=O)O)c2n1Cc1ccc(-c2ccccc2-c2nnn[nH]2)cc1 [Candesartan]
SARS-CoV-2 [1]
  activity at 40 µM: lack of activity

## Cn1nnnc1SCC1=C(C(=O)O)N2C(=O)[C@@H](NC(=O)[C@H](O)c3ccccc3)[C@H]2SC1 [Cefamandole]
SARS-CoV-2 [1]; [12]
  EC50: ≥ 40 µM

## CCN(CC)CCCC(C)Nc1ccnc2cc(Cl)ccc12 (centres unmarked) [Chloroquine diphosphate]
SARS-CoV-2 [6]; [14]
  Inhibition index: 1.35

## Cl.Clc1ccc(Cn2c(CN3CCCC3)nc3ccccc32)cc1 [Clemizole hydrochloride]
SARS-CoV-2 [1]; [15]
  EC50: 23.9 µM
SARS-CoV-2 [1]; [16]
  EC90: 38.2 µM
SARS-CoV-2 [1]; [11]
  SI: > 1.7
SARS-CoV-2 [6]; [14]
  Inhibition index: 1.01
VeroE6 cells [7]
  CC50: > 40 µM

## CC(C)CN(C[C@@H](O)[C@H](Cc1ccccc1)NC(=O)O[C@H]1CO[C@H]2OCC[C@H]21)S(=O)(=O)c1ccc(N)cc1 [Darunavir]
SARS-CoV-2 [1]; [12]
  EC50: ≥ 40 µM

## CNCC(O)c1ccc(OC(=O)C(C)(C)C)c(OC(=O)C(C)(C)C)c1 (centres unmarked) [Dipivefrin hydrochloride]
SARS-CoV-2 [6]; [14]
  Inhibition index: 1.01

## C[C@@H]1CCO[C@H]2Cn3cc(C(=O)NCc4ccc(F)cc4F)c(=O)c(O)c3C(=O)N12 [Dolutegravir]
SARS-CoV-2 [1]; [9]
  EC90: > 40 µM
SARS-CoV-2 [1]; [12]
  EC50: 22 µM
SARS-CoV-2 [1]; [11]
  SI: > 1.8
In vitro; VeroE6 cells (no virus)
  CC50 at 2 days: > 40 µM

## CCCCOc1ccc(C(=O)CCN2CCCCC2)cc1 [Dyclonine hydrochloride]
SARS-CoV-2 [1]; [12]
  EC50: 10 µM
SARS-CoV-2 [1]; [13]
  EC90: > 40 µM
SARS-CoV-2 [1]; [11]
  SI: > 4
In vitro; VeroE6 cells (no virus)
  CC50 at 2 days: > 40 µM
SARS-CoV-2 [4]
  antiviral effect in Caco-2 cells (in words): Arbidol-like result

## C[C@]12CC[C@H](O)C[C@@H]1CC[C@@H]1[C@@H]2CC[C@]2(C)C(=O)CC[C@@H]12 [Epiandrosterone]
SARS-CoV-2 [6]; [14]
  Inhibition index: 1.07

## C=C1C[C@@H]2[C@H](CC[C@]3(C)C(=O)CC[C@@H]23)[C@@]2(C)C=CC(=O)C=C12 [Exemestane]
SARS-CoV-2 [1]; [9]
  EC90: 9.86 µM
SARS-CoV-2 [1]; [10]
  EC50: 7.51 µM
SARS-CoV-2 [6]; [14]
  Inhibition index: 1.10
In vitro
  CC50 at 2 days: > 40 µM
SARS-CoV-2 [4]
  antiviral effect in Caco-2 cells (in words): Arbidol-like result

## COc1ccc(CC(C)NCC(O)c2ccc(O)c(NC=O)c2)cc1 (centres unmarked) [Formoterole]
SARS-CoV-2 [1]; [15]
  EC50: ≥ 40 µM

## CCN(CCO)CCCC(C)Nc1ccnc2cc(Cl)ccc12 (centres unmarked) [Hydroxychloroquine sulfate]
SARS-CoV-2 [1]; [12]
  EC50: 4.17 µM
SARS-CoV-2 [1]; [13]
  EC90: 25.5 µM
In vitro
  CC50 at 2 days: > 40 µM
SARS-CoV-2 [5]
  antiviral effect in a macaque model: no antiviral effect

## CC(C)(C)NC[C@H](O)c1ccc(O)c(CO)c1 [Levalbuterol]
SARS-CoV-2 [1]; [12]
  EC50: ≥ 40 µM

## O=C([O-])c1ccccc1-c1c2cc(Br)c(=O)cc-2oc2[c]([Hg+])c([O-])c(Br)cc12.[Na+].[Na+].[OH-] [Merbromin disodium salt]
SARS-CoV-2 [6]
  Inhibition index: 1.12

## CN1CCN2c3ncccc3Cc3ccccc3C2C1 (centres unmarked) [Mirtazapine]
SARS-CoV-2 [6]; [14]
  Inhibition index: 1.03

## CCCc1nc(C(C)(C)O)c(C(=O)O)n1Cc1ccc(-c2ccccc2-c2nnn[nH]2)cc1 [Olmesartan]
SARS-CoV-2 [1]; [12]
  EC50: ≥ 40 µM
SARS-CoV-2 [1]
  activity at 40 µM: lack of activity

## COc1ccc2[nH]c([S+]([O-])Cc3ncc(C)c(OC)c3C)nc2c1 (centres unmarked) [Omeprazole]
SARS-CoV-2 [1]; [12]
  EC50: 17.1 µM
SARS-CoV-2 [1]; [13]
  EC90: 38 µM
In vitro; VeroE6 cells (no virus)
  CC50 at 2 days: > 40 µM

## OCCN1CCN(CCCN2c3ccccc3C=Cc3ccccc32)CC1 [Opipramol dihydrochloride]
SARS-CoV-2 [1]; [12]
  EC50: 5.05 µM
SARS-CoV-2 [1]; [13]
  EC90: 5.97 µM
SARS-CoV-2 [1]; [11]
  SI: > 7.9
SARS-CoV-2 [6]; [14]
  Inhibition index: 1.05
In vitro; VeroE6 cells (no virus)
  CC50 at 2 days: > 40 µM

## C=CCOc1ccccc1OCC(O)CNC(C)C (centres unmarked) [Oxprenolol hydrochloride]
SARS-CoV-2 [1]; [12]
  EC50: 20.2 µM
SARS-CoV-2 [1]; [13]
  EC90: > 40 µM
SARS-CoV-2 [1]; [11]
  SI: > 2
In vitro; VeroE6 cells (no virus)
  CC50 at 2 days: > 40 µM

## CC(=O)[C@H]1CC[C@H]2[C@@H]3CC=C4C[C@@H](O)CC[C@]4(C)[C@H]3CC[C@]12C [Pregnenolone]
SARS-CoV-2 [6]; [14]
  Inhibition index: 1.66

## CN(C)CCCN1c2ccccc2Sc2ccccc21 [Promazine hydrochloride]
SARS-CoV-2 [6]; [14]
  Inhibition index: 1.16

## C=C[C@H]1C[N@@]2CC[C@H]1C[C@@H]2[C@@H](O)c1ccnc2ccc(OC)cc12 [Quinidine hydrochloride]
SARS-CoV-2 [1]
  SI: > 7.8
SARS-CoV-2 [1]; [12]
  EC50: 5.11 µM
SARS-CoV-2 [1]; [13]
  EC90: > 40 µM
In vitro; VeroE6 cells (no virus)
  CC50 at 2 days: > 40 µM

## COc1ccccc1OCC(O)CN1CCN(CC(=O)Nc2c(C)cccc2C)CC1 (centres unmarked) [Ranolazine]
SARS-CoV-2 [1]; [12]
  EC50: ≥ 40 µM

## CCC(CC)COC(=O)[C@H](C)N[P@](=O)(OC[C@H]1O[C@@](C#N)(c2ccc3c(N)ncnn23)[C@H](O)[C@@H]1O)Oc1ccccc1 [Remdesivir]
SARS-CoV-2 [8]
  inhibition at 5 µM: 100%
  inhibition at 10 µM: 100%

## O=C(CCCN1CCC2(CC1)C(=O)NCN2c1ccccc1)c1ccc(F)cc1 [Spiperone]
SARS-CoV-2 [1]; [13]
  EC90: 13.1 µM
In vitro
  CC50 at 2 days: > 40 µM

## COc1ncnc(NS(=O)(=O)c2ccc(N)cc2)c1OC [Sulfadoxine]
SARS-CoV-2 [1]; [9]
  EC90: > 40 µM
SARS-CoV-2 [1]; [10]
  EC50: > 30 µM
SARS-CoV-2 [1]; [15]
  EC50: 35.4 µM
SARS-CoV-2 [1]; [11]
  SI: > 1.13
In vitro
  CC50 at 2 days: > 40 µM
SARS-CoV-2 [4]
  antiviral effect in Caco-2 cells (in words): Arbidol-like result

## Nc1c2c(nc3ccccc13)CCCC2 [Tacrine hydrochloride]
SARS-CoV-2 [6]; [14]
  Inhibition index: 1.44

## CNCc1cc(-c2ccccc2F)n(S(=O)(=O)c2cccnc2)c1 [Vonoprazan]
SARS-CoV-2 [1]; [9]
  EC90: > 40 µM
SARS-CoV-2 [1]; [10]
  EC50: > 30 µM
SARS-CoV-2 [1]; [15]
  EC50: 38.6 µM
SARS-CoV-2 [1]; [11]
  SI: > 1
In vitro
  CC50 at 2 days: > 40 µM

## Spiramycin
SARS-CoV-2 [1]
  SI: > 5
SARS-CoV-2 [1]; [15]
  EC50: 7.95 µM
SARS-CoV-2 [1]; [16]
  EC90: 10.5 µM
VeroE6 cells [7]
  CC50: > 40 µM
